In experiment [1] the target is Sphingosine 1-phosphate receptor 1 (Homo sapiens, UniProt P21453). Format: functional.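 Note: Tango beta-arrestin reporter U2OS cells stimulated with S1P near its EC80; inhibitor potency meaning antagonism of receptor activation by the natural agonist.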
A further experiment concerns HeLa. Nature of the experiment: Cytotoxicity counterscreen assay for transcriptional activators of heat shock protein 70 (Hsp70). [Related pubchem assays: 1203, 1252 ]. The format is functional. The note with it: Homo sapiens. Background: A counterscreen serves to expose hits that act by an unwanted route or on another target.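 Note: cells exposed to compound for 16 hours before readout.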
The target in experiment [2] is T1, Heat shock factor protein 1 (Mus musculus, UniProt P38532).
T1 sequence (P38532 whole entry): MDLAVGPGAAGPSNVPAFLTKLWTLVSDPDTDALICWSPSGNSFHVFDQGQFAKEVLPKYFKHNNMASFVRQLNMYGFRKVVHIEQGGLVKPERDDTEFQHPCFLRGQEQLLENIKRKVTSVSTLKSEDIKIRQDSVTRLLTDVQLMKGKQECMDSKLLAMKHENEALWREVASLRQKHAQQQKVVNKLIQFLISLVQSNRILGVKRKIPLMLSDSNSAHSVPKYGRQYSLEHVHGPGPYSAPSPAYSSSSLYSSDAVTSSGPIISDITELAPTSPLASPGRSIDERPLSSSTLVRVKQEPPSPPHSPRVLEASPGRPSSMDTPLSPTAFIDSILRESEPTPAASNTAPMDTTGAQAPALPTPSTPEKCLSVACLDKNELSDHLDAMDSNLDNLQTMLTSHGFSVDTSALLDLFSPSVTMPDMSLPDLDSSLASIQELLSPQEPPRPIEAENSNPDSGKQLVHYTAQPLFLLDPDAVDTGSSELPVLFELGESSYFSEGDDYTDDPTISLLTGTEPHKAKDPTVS
The experiment is described as follows: decrease of HSF1-responsive luciferase luminescence – cell-based, NIH3T3, dose retest, confirmation (AID 2382).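 Note: NIH3T3 fibroblasts with HSF1-driven luciferase reporter stressed by proteasome inhibitor MG132; luminescence from HSF1-driven luciferase expression after 8 hours of MG132 stress.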 The format is functional.

Experiment [3] in a line: viability of uninfected HEp-2 cells – cell-based, HTS, cytotoxicity control for RSV inhibitor project, dose response (AID 2410). Format: functional. The note with it: human respiratory syncytial virus.
Experiment [4] deals with T2, Sentrin-specific protease 8 (Homo sapiens, UniProt Q96LD8).
T2 sequence (Q96LD8 whole entry): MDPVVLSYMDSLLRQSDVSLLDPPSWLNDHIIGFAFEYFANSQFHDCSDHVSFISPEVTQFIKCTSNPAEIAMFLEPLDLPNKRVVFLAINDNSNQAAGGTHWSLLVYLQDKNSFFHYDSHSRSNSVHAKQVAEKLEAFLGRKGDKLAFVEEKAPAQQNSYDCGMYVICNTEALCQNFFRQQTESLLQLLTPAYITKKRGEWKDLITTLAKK
Nature of the experiment: inhibition of human SENP8 cleavage activity – biochemical, luminescence, SAR follow-up (AID 504501). Format: functional.

In experiment [5] the test system is Vero. Nature of the experiment: cells. Format: functional, cell-based. The note with it: Chlorocebus sabaeus.
Experiment [6] relates to Vero. The experiment is described as follows: cells. Format: functional. The note with it: Chlorocebus sabaeus.
Experiment [7] deals with T3, Sentrin-specific protease 7 (Homo sapiens, UniProt Q9BQF6).
T3 sequence (Q9BQF6 whole entry): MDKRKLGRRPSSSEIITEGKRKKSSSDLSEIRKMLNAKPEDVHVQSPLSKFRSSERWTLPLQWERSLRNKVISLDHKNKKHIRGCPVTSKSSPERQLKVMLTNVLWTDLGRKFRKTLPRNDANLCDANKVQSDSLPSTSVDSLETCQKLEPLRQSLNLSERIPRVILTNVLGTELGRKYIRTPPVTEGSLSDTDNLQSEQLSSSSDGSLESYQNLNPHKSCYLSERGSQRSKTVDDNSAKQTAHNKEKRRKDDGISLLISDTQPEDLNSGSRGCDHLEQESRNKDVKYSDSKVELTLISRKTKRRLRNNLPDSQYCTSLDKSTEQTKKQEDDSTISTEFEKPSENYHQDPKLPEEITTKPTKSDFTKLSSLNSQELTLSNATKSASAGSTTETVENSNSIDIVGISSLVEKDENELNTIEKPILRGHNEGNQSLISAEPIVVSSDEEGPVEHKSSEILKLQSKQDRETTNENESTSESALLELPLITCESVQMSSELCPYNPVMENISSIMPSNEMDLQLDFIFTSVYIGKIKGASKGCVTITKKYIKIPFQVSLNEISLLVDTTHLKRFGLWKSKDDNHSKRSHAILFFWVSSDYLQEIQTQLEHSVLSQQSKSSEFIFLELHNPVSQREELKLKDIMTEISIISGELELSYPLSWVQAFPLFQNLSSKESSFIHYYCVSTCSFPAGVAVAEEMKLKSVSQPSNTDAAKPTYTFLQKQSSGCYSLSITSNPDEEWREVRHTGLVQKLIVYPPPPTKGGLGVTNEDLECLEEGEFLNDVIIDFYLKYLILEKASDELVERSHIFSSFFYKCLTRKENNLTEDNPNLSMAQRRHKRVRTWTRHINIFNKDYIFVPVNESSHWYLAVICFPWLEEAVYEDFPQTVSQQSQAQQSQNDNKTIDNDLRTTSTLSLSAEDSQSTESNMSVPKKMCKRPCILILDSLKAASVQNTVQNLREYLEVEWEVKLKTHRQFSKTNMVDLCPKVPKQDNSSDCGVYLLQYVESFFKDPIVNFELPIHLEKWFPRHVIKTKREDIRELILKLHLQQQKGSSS
The experiment is described as follows: inhibition of human SENP7 cleavage activity – biochemical, luminescence, SAR follow-up (AID 504497). The format is functional.

Experiment [8] deals with RNA-editing ligase 1, mitochondrial (Trypanosoma brucei brucei, UniProt P86926). Nature of the experiment: inhibition of trypanosome RNA editing ligase – biochemical, fluorescence, Trypanosoma brucei, dose response (AID 1117295). Format: functional.
RNA-editing ligase 1, mitochondrial, sequence (P86926 whole entry): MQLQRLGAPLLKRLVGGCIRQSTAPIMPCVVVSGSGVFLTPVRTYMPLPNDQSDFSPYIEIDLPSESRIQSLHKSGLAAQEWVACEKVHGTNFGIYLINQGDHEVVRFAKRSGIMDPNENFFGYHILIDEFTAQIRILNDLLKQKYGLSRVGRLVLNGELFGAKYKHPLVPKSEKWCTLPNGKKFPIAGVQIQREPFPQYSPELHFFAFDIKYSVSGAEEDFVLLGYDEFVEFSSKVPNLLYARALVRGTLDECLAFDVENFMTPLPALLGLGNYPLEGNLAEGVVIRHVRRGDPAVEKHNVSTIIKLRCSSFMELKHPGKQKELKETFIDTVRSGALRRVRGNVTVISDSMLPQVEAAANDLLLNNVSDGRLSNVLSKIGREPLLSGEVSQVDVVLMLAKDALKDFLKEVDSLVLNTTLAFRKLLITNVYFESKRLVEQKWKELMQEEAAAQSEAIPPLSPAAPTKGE
The test system of experiment [9] is Vero. Nature of the experiment: viability of Vero cells under compound – cytotoxicity control for flavivirus capping enzyme inhibitors (AID 588742). Format: functional. The note with it: Chlorocebus sabaeus.
A further experiment deals with Phospholipase A2 (Homo sapiens, UniProt P04054). Format: functional.
Phospholipase A2, sequence (P04054 whole entry): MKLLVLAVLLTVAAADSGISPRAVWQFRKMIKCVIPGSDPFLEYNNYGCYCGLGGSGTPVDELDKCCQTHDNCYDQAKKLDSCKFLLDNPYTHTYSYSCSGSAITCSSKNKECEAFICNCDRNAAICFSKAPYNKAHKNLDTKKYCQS
Experiment [10] deals with C-C chemokine receptor type 6 (Homo sapiens, UniProt P51684). The experiment is described as follows: antagonism of CCR6 beta-arrestin recruitment – cell-based, luminescent beta-arrestin readout, dose response (AID 504728). The format is functional. On the technique in general: Recruitment of arrestin is a read-out of receptor activation apart from second messengers.
C-C chemokine receptor type 6, sequence (P51684 whole entry): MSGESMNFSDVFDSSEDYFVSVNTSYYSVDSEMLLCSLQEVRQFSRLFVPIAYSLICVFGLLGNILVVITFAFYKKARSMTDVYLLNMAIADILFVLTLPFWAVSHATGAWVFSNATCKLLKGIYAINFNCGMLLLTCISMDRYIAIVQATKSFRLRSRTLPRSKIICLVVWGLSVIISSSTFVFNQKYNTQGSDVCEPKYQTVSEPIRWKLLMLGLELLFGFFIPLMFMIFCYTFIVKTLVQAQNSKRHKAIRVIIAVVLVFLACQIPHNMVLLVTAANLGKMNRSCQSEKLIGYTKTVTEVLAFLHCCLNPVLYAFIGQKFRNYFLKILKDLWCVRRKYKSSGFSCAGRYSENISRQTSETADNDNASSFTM
Experiment [11] is described as follows: viability of PTEN-deleted HCT116 cells – cell-based, HCT116 PTEN knockout, dose response (AID 1047).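 Note: HCT116 colon tumor cells with PTEN knocked out; cells exposed to compound for 60 hours before readout; potency for loss of cell viability measured by luminescence.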 The format is functional.
Experiment [12] in a line: viability of HCT116 lacking mutant beta-catenin – cell-based, human colon tumor, dose response (AID 1045).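 Note: HCT116 colon tumor cells with beta catenin knocked out; cells exposed to compound for 60 hours.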 The format is functional.

Activity calls are given as the source filed them.

Sphingosine 1-phosphate receptor 1, sequence (P21453 whole entry): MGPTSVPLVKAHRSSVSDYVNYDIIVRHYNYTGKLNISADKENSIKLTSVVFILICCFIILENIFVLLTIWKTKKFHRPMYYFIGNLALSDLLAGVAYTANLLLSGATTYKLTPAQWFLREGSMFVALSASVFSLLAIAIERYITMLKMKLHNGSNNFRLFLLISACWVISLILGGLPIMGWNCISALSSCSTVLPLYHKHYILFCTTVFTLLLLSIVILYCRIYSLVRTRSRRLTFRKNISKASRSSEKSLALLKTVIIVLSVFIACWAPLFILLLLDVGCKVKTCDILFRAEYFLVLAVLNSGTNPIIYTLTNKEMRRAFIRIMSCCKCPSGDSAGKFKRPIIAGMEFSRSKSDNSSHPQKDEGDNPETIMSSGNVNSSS

For the compound `COC(=O)C[C@]1(C(=O)OC)CN(C#N)N(c2ccc(Cl)cc2)C12c1ccccc1-c1ccccc12`, in experiment [1], the half-maximal inhibitory concentration (IC50) (in general, the concentration that inhibits the measured activity by half) is 5.39 µM (active). Moreover, in the experiment with HeLa, the CC50 – broadly, the concentration giving 50% cytotoxicity – is 3.55 µM (active). Also, the EC50 (commonly the midpoint of the concentration-response curve) in experiment [2] was 2.74 µM (active).
With `O=C(Nc1ccc(C#Cc2ccccc2)cc1)C1CC1`, the half-maximal cytotoxic concentration (CC50) in experiment [3] was 26.9 µM (active); in the experiment with Vero [6], > 25 µM (active). Besides, the IC50 is > 99 µM (inactive) in [4], > 12.5 µM (active) in the experiment with Vero [5], 3.28 µM (active) in experiment [7] and 7.09 µM (active) in the experiment “cells”.
For `CCCCn1c(NC(=O)c2ccco2)c(C(=O)OCC)c2nc3ccccc3nc21`, in [8], the IC50 is 21.8 µM (inactive). Moreover, in the experiment with Vero [9], the CC50 was > 40 µM (active).
Turning to `Cc1ccccc1NC1=C/C(=N\S(=O)(=O)c2ccc(C(=O)O)cc2)c2ccccc2C1=O`, the IC50 on Phospholipase A2 was 15.4 µM (active).
Turning to `Cc1ccc(NC2=C/C(=N/S(=O)(=O)c3cccs3)c3ccccc3C2=O)cc1`, in experiment [10], the IC50 is > 66.6 µM (inactive). Also, the concentration for a half-maximal effect (EC50) was 3.56 µM (active) in [11] and 2.82 µM (active) in experiment [12].

(Values after ChEMBL document CHEMBL1201862, “PubChem BioAssay data set” (2004).)
